Data from patent US8263642B2, “Antimicrobial compounds and methods of use thereof” (Vanderbilt University, priority 2008, dated 2012).

Key:
Type in all cases: cell-based, Staphylococcus aureus
[1] = test system: S. aureus heme toxicity adaptation; test: Heme adaptation (resistance to heme-mediated toxicity), Newman; details: whether compound induces heme adaptation
Description: With reference to Table 1, “Luminescence” refers to the raw luminescence value obtained in a luminomter. “Control (82.5 nm)” refers to the luminescence value obtained from heme at 82.5 nM as a positive control in the same plate as the experimental. “% lum” is the percentage of luminescence induced by the compound as compared to the heme control in the same plate. […] All of these assays are described in the application. […] “N/T” indicates the test was not performed.
This secondary counter screen can involve testing the compounds of interest for their ability to increase the resistance of wildtype S. aureus to heme-mediated toxicity. Upon sensing heme, HssRS increases the expression of hrtAB, in turn increasing the resistance of S. aureus to heme mediated toxicity. By extension, additional molecules recognized by HssRS leading to hrtAB activation can result in a similar increase in resistance to heme mediated toxicity. For this assay, bacteria can be grown for 15 hours in the presence of compounds of interest (using concentrations determined in the XylE assay), followed by subculture into TSB containing 10 μM heme. Compounds that increase the resistance of S. aureus to heme-mediated toxicity can be selected for further studies. S. aureus strains unable to adapt to heme mediated toxicity (ΔhssR) can be included as a negative control. As a positive control, wildtype S. aureus can be exposed to subinhibitory concentrations of heme prior to subculture. The inclusion of this secondary counterscreen can, in some aspects, rule out compounds that non-specifically increase the expression of the XylE and Lux-based reporter genes.
S. aureus cultures were grown overnight (O/N ˜15 hrs) at 37° C. with shaking at 180 RPM in tryptic soy broth (TSB). Cultures were diluted 1:75 and inoculated into roundbottom 96-well plates in a final volume of 150 μl. Cultures were grown at 37° C. with aeration and bacterial growth was monitored by the increase in absorbance (O.D.600) over time. For the hemin adaptation assays, the medium was supplemented with different hemin concentrations prior to bacterial inoculation. The results represent the mean±S.D. from triplicate determinations and the asterisks denote statistically significant differences as determined by Student's t test (p<0.05).

[2] = test system: hrtAB-driven expression of the xylE reporter gene; test: XylE reporter assay (hrtAB promoter-xylE), Newman; details: for XylE (0.05): level of XylE induction at 0.05 uM of the compound; for XylE (0.5): level of XylE induction at 0.5 uM of the compound; for XylE (5.0): level of XylE induction at 5.0 uM of the compound; for XylE (50.0): level of XylE induction at 50.0 uM of the compound
Outline: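 S. aureus carrying hrtAB promoter-xylE fusion in pOS1 grown O/N at 37° C in TSB with chloramphenicol, lysed with lysostaphin. Lysate XylE activity read as 2-hydroxymuconic semialdehyde formation from 0.2 mM pyrocatechol (A375, every minute for 30 minutes), normalised to BCA protein; unit = 1 nmol/min/mg at 30° C.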

response regulator HssR = test: HssR dependence of XylE inducing activity, Newman; details: whether XylE inducing activity requires HssR
Description: With reference to Table 1, “Luminescence” refers to the raw luminescence value obtained in a luminomter. “Control (82.5 nm)” refers to the luminescence value obtained from heme at 82.5 nM as a positive control in the same plate as the experimental. “% lum” is the percentage of luminescence induced by the compound as compared to the heme control in the same plate. […] All of these assays are described in the application. […] “N/T” indicates the test was not performed. […]
S. aureus strains harboring the appropriate reporter construct were inoculated into 500 μl of TSB containing 10 μg/ml chloramphenicol in 1.5 ml tubes. Cultures were grown O/N at 37° C. with shaking. Bacteria were pelleted by centrifugation and spent medium was aspirated. The pellet was washed once with 500 μl of 20 mM potassium phosphate, pH 7.6, and resuspended in 150 μl of 100 mM potassium phosphate buffer, pH 8.0, 10% (v/v) acetone, 25 μg/ml lysostaphin. After 20 minute incubation at 37° C. and 5 minute incubation on ice, samples were centrifuged at 20,000 g for 30 minutes at 4° C. 1-10 μl of supernatant was added to a 96-well plate and 200 μl of 100 mM potassium phosphate, pH 8.0, 0.2 mM pyrocatechol was added to each well. Formation of 2-hydroxymuconic semialdehyde was tracked by measuring the absorbance at 375 nm every minute for 30 minutes on a Varian MP 50 microplate reader. Protein concentration in samples was determined by BCA (Pierce). One unit of specific activity of XylE in a sample is defined as the formation of 1 nmol of 2-hydroxymuconic semialdehyde per minute per milligram of cellular protein at 30° C. (Chien, Y., Manna, A. C., Projan, S. J., and Cheung, A. L. 1999, “SarA, a global regulator of virulence determinants in Staphylococcus aureus, binds to a conserved motif essential for sar-dependent gene regulation. J. Biol. Chem. 274, 37169-37176).

| Structure (SMILES) | Heme Adapt [1] | XylE (0.05) [2] | XylE (0.5) [2] | XylE (5.0) [2] | XylE (50.0) [2] | HssR Dep (response regulator HssR) |
| --- | --- | --- | --- | --- | --- | --- |
| COc1ccc(-c2cc(-c3ccc(C)cc3)[nH]n2)c(O)c1 | + | 0.08 | 0.02 | 0.07 | 0.09 | + |
| COc1ccc(-c2cc(-c3ccc(OC)cc3O)n[nH]2)cc1 | + | 0.06 | 0.02 | 0.7 | 4 | + |
| COc1ccc(C(=O)Nc2sc(-c3ccccc3)cc2C(N)=O)cc1 | + | 0.07 | 0.09 | 4 | 6 | + |
| Fc1ccc(CNC(=S)Nc2ccc(Oc3ccccc3)cc2)cc1 | + | 0.06 | 0.05 | 0.2 | 1 | + |
| CC(C)(C)c1ccc(O)c(NC(=S)NC(=O)c2cc3ccccc3o2)c1 | + | 0.09 | 0.8 | 0.9 | 1 | + |
| Oc1c(-c2cc(-c3ccco3)[nH]n2)ccc2ccccc12 [drawing 25] | + | 0.07 | 0.06 | 0.2 | 1000 | + |
| CC(NC(=O)C1(c2ccccc2)CCCC1)C1COc2ccccc2O1 (stereo not drawn) [drawing 26] | + | 0.06 | 0.05 | 0.7 | 200 | + |
| Cc1ccc(O)c(NC(=O)c2nn3c(c2Br)NC(c2ccco2)CC3C(F)(F)F)c1 (stereo not drawn) [drawing 29] | + | 0.05 | 0.06 | 5 | 3 | + |
| Cc1cccc(C(=O)Nc2ccc(-c3nc4ccccc4o3)cc2)c1 [drawing 43] | + | 0.09 | 0.7 | 1 | 0.09 | + |
| CC(NC(=O)C1(c2ccccc2)CCCC1)C1COc2ccccc2O1 (stereo not drawn) [drawing 45] | + | 0.04 | 0.1 | 0.7 | 0.05 | + |
| O=C(N/N=C/c1ccc(-c2ccc(Br)cc2)o1)C1COc2ccccc2O1 (stereo not drawn) [drawing 48] | + | 0.02 | 0.08 | 0.7 | 0.2 | + |
| O=C(N/N=C/c1ccc(-c2cccc(C(F)(F)F)c2)o1)C1COc2ccccc2O1 (stereo not drawn) [drawing 49] | + | 0.07 | 0 | 0.6 | 0.09 | + |
| COc1ccc(Br)cc1C(=O)NC(=S)Nc1cc(C)c(C)cc1O [drawing 63] | + | 0.08 | 0.8 | 0.9 | 2 | + |
| Oc1c(-c2cc(-c3ccco3)[nH]n2)ccc2ccccc12 [drawing 65] | + | 0.4 | 0.07 | 12 | 5 | + |
| CCCN1C(=O)/C(=C2/C(=O)N(CC(=O)Nc3ccc(Cl)cc3)c3ccccc32)SC1=S [drawing 67] | + | 0.02 | 0.04 | 0.05 | 1 | + |
| Cc1ccc(NS(=O)(=O)c2ccc3c(c2)Cc2cc(S(=O)(=O)Nc4ccc(C)cc4)ccc2-3)cc1 [drawing 74] | + | 1 | 1 | 15 | 14 | + |
| COc1ccccc1NC1=C/C(=N\S(=O)(=O)c2ccc(Br)cc2)c2ccccc2C1=O [drawing 81] | + | 1 | 1 | 1 | 1 | + |
